Laboratory results reported in publication PMC11249646, “Small-Molecule Disruptors of the Interaction between Calcium- and Integrin-Binding Protein 1 and Integrin αIIbβ3 as Novel Antiplatelet Agents” (ACS Pharmacology & Translational Science, 2024).
Like-named read-outs stand apart in the source and are kept apart here.

What was measured:
Assay type in all cases: binding
[1] = molecular target: T1, GST-CIB1 : F-scrambled peptide (Homo sapiens, UniProt Q99828); assay: FP scrambled-peptide counter screen, 1536-well format; conditions: scrambled-peptide counterscreen; for COUNTERSCREEN Confirm?: YES/NO call; for COUNTERSCREEN Curve Class: qHTS curve class; for IC50: read-out: COUNTERSCREEN IC50
T1 construct: made in house; host or cells: BL-21 plus RIL cells (E. coli)
T1 sequence (Q99828 1-191): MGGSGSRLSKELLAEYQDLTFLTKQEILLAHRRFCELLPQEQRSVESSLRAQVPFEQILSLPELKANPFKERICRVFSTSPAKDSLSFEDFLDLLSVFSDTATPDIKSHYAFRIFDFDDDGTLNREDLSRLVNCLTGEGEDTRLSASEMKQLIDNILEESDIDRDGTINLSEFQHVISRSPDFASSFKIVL

[2] = molecular target: T2, CIB1 and αIIb interaction (CIB1-GST : F-αIIb peptide) (Homo sapiens, UniProt Q99828); assay: FP assay, 1536-well qHTS format (primary and confirmatory screen); conditions: for CONFIRMATORY SCREEN Confirm?: YES/NO call; for CONFIRMATORY SCREEN Curve Class: qHTS curve class; for CONFIRMATORY SCREEN Curve Class / Curve Class: negative sign = inhibitory curve; for CONFIRMATORY SCREEN Efficacy (%) / Efficacy (%): negative = inhibition
T2 construct: made in house; host or cells: BL-21 plus RIL cells (E. coli)
T2 sequence (Q99828 1-191): T1 sequence (Q99828 1-191)

[3] = molecular target: T3, CIB1 and αIIb interaction (GST-CIB1 : F-αIIb peptide) (Homo sapiens, UniProt Q99828); assay: FP assay, 384-well format (screen); parameters: 384-well SCREEN Efficacy (%): concentration or dose not given beside the values; conditions: F-αIIb peptide; for 384-well SCREEN Confirm?: YES/NO; for IC50: read-out: 384-well SCREEN IC50
T3 construct: made in house; host or cells: BL-21 plus RIL cells (E. coli)
T3 sequence (Q99828 1-191): T1 sequence (Q99828 1-191)

[4] = molecular target: T1, GST-CIB1 : F-scrambled peptide; assay: FP scrambled-peptide counter screen, 384-well format; conditions: F-scrambled peptide; for 384-well COUNTERSCREEN Confirm?: *: Curve in opposite direction; for IC50: read-out: 384-well COUNTERSCREEN IC50
[5] = confirmatory screen, read-out: CONFIRMATORY SCREEN IC50
[6] = qHTS primary screen hits, Table S2
[7] = qHTS primary screen hits, Table S2, read-out: IC50
[8] = qHTS primary screen hits, Table S2, several classes where COUNT > 1
[9] = qHTS FP screen hits, Table S2, one class per curve where COUNT > 1
[10] = qHTS FP screen hits, Table S2, read-out: IC50

Cc1ccc(S(=O)(=O)Nc2cnccc2C(=O)Nc2nc(-c3ccccc3)cs2)cc1.O=C(O)C(F)(F)F [NCGC00262386-01]
COUNTERSCREEN Efficacy (%) [1]: -51%
COUNTERSCREEN Confirm? [1]: YES
COUNTERSCREEN Curve Class [1]: -3
IC50 [1]: 89.1 µM
CONFIRMATORY SCREEN Confirm? ([2]; confirmatory screen): YES
CONFIRMATORY SCREEN Curve Class ([2]; confirmatory screen): -1.2
CONFIRMATORY SCREEN Efficacy (%) ([2]; confirmatory screen): -53%
IC50 [2, 5]: 14.1 µM
Efficacy (%) [2, 6]: -42%
IC50 [2, 7]: 27.4 µM
384-well SCREEN Efficacy (%) [3]: 29%
384-well SCREEN Confirm? [3]: YES
IC50 [3]: 16.1 µM
384-well COUNTERSCREEN Efficacy (%) [4]: 42%
384-well COUNTERSCREEN Confirm? [4]: YES
IC50 [4]: > 120 µM

O=C(O)C(F)(F)F.O=c1c2ccccc2nc2sc(NS(=O)(=O)c3ccc4c(c3)CCC4)nn12 [NCGC00187579-01]
COUNTERSCREEN Efficacy (%) [1]: 62%
COUNTERSCREEN Confirm? [1]: YES
IC50 [1]: 35.5 µM
CONFIRMATORY SCREEN Confirm? ([2]; confirmatory screen): YES
CONFIRMATORY SCREEN Curve Class ([2]; confirmatory screen): -1.2
CONFIRMATORY SCREEN Efficacy (%) ([2]; confirmatory screen): -35%
IC50 [2, 5]: 6.3 µM
Efficacy (%) [2, 6]: -32%
Curve Class [2, 6]: -1.4
IC50 [2, 7]: 2.8 µM
384-well SCREEN Efficacy (%) [3]: 43%
384-well SCREEN Confirm? [3]: YES
IC50 [3]: 44.7 µM
384-well COUNTERSCREEN Efficacy (%) [4]: 28%
384-well COUNTERSCREEN Confirm? [4]: YES
IC50 [4]: > 120 µM

N[C@@H](Cc1ccc(Oc2cc(I)c(O)c(I)c2)c(I)c1)C(=O)O [NCGC00344545-01]
COUNTERSCREEN Efficacy (%) [1]: -19%
COUNTERSCREEN Confirm? [1]: YES
COUNTERSCREEN Curve Class [1]: 4
CONFIRMATORY SCREEN Confirm? ([2]; confirmatory screen): YES
CONFIRMATORY SCREEN Curve Class ([2]; confirmatory screen): -1.2
CONFIRMATORY SCREEN Efficacy (%) ([2]; confirmatory screen): -60%
IC50 [2, 5]: 15.8 µM
Efficacy (%) [2, 6]: -39%
Curve Class [2, 8]: -2.2
IC50 [2, 7]: 39.8 µM
384-well SCREEN Efficacy (%) [3]: 46%
384-well SCREEN Confirm? [3]: YES
IC50 [3]: 10 µM
384-well COUNTERSCREEN Efficacy (%) [4]: 51%
IC50 [4]: 3.1 µM

COc1cc(C(=O)NS(=O)(=O)c2ccccc2C)ccc1Cc1cn(C)c2ccc(NC(=O)OC3CCCC3)cc12 [NCGC00164547-06]
COUNTERSCREEN Efficacy (%) [1]: 37%
COUNTERSCREEN Confirm? [1]: YES
IC50 [1]: 50.1 µM
CONFIRMATORY SCREEN Confirm? ([2]; confirmatory screen): YES
CONFIRMATORY SCREEN Curve Class ([2]; confirmatory screen): -1.2
CONFIRMATORY SCREEN Efficacy (%) ([2]; confirmatory screen): -58%
IC50 [2, 5]: 14.1 µM
Efficacy (%) [2, 6]: -38%
Curve Class [2, 8]: -2.4
IC50 [2, 7]: 35.5 µM
384-well SCREEN Efficacy (%) [3]: 38%
384-well SCREEN Confirm? [3]: YES
IC50 [3]: 9.6 µM
384-well COUNTERSCREEN Efficacy (%) [4]: 60%
384-well COUNTERSCREEN Confirm? [4]: YES*
IC50 [4]: 1 µM

CC[S+]([O-])c1nc(-c2cccc(OCc3ccccc3)c2)cc(C(F)(F)F)n1 (centres unmarked) [NCGC00379201-03]
COUNTERSCREEN Efficacy (%) [1]: 21%
COUNTERSCREEN Confirm? [1]: YES
COUNTERSCREEN Curve Class [1]: 4
CONFIRMATORY SCREEN Confirm? ([2]; confirmatory screen): YES
CONFIRMATORY SCREEN Curve Class ([2]; confirmatory screen): -1.2
CONFIRMATORY SCREEN Efficacy (%) ([2]; confirmatory screen): -63%
IC50 [2, 5]: 0.4 µM
Efficacy (%) ([2]; qHTS FP screen hits, Table S2): -39%
Curve Class [2, 9]: -1.2
IC50 [2, 10]: 2.2 µM
384-well SCREEN Efficacy (%) [3]: 70%
384-well SCREEN Confirm? [3]: YES
IC50 [3]: 0.32 µM
384-well COUNTERSCREEN Efficacy (%) [4]: 30%
384-well COUNTERSCREEN Confirm? [4]: YES*
IC50 [4]: > 120 µM

Cc1cc(F)ccc1S(=O)(=O)Nc1cnccc1C(=O)Nc1nc(-c2ccccc2)cs1 [NCGC00345106-03]
COUNTERSCREEN Efficacy (%) [1]: 28%
COUNTERSCREEN Confirm? [1]: YES
COUNTERSCREEN Curve Class [1]: 4
CONFIRMATORY SCREEN Confirm? ([2]; confirmatory screen): YES
CONFIRMATORY SCREEN Curve Class ([2]; confirmatory screen): -2.1
CONFIRMATORY SCREEN Efficacy (%) ([2]; confirmatory screen): -123%
IC50 [2, 5]: 28.2 µM
Efficacy (%) ([2]; qHTS FP screen hits, Table S2): -51%
Curve Class [2, 9]: -2.2
IC50 [2, 10]: 50.1 µM
384-well SCREEN Efficacy (%) [3]: 46%
384-well SCREEN Confirm? [3]: YES
IC50 [3]: 28.2 µM
384-well COUNTERSCREEN Efficacy (%) [4]: 38%
384-well COUNTERSCREEN Confirm? [4]: YES
IC50 [4]: > 120 µM

CCc1oc2ccccc2c1C(=O)c1cc(I)c(O)c(I)c1 [NCGC00160408-03]
COUNTERSCREEN Efficacy (%) [1]: 20%
COUNTERSCREEN Confirm? [1]: YES
COUNTERSCREEN Curve Class [1]: 1.4
IC50 [1]: 11.2 µM
CONFIRMATORY SCREEN Confirm? ([2]; confirmatory screen): YES
CONFIRMATORY SCREEN Curve Class ([2]; confirmatory screen): -1.2
CONFIRMATORY SCREEN Efficacy (%) ([2]; confirmatory screen): -75%
IC50 [2, 5]: 11.2 µM
Efficacy (%) ([2]; qHTS FP screen hits, Table S2): -52%
Curve Class [2, 9]: -2.2
IC50 [2, 10]: 39.8 µM
384-well SCREEN Efficacy (%) [3]: 31%
IC50 [3]: > 120 µM
384-well COUNTERSCREEN Efficacy (%) [4]: 173%
IC50 [4]: 10 µM

COC(=O)C12C(=O)C(C)(O)C(=O)C1(C)C(C)=CC1C34CCC(OC3=O)C(C)(CO)C4CCC12C (centres unmarked) [NCGC00380147-01]
COUNTERSCREEN Efficacy (%) [1]: -27%
COUNTERSCREEN Confirm? [1]: YES
COUNTERSCREEN Curve Class [1]: 4
CONFIRMATORY SCREEN Confirm? ([2]; confirmatory screen): YES
CONFIRMATORY SCREEN Curve Class ([2]; confirmatory screen): -2.2
CONFIRMATORY SCREEN Efficacy (%) ([2]; confirmatory screen): -42%
IC50 [2, 5]: 17.8 µM
Efficacy (%) ([2]; qHTS FP screen hits, Table S2): -32%
Curve Class [2, 9]: -2.2
IC50 [2, 10]: 28.2 µM
384-well SCREEN Efficacy (%) [3]: 80%
384-well SCREEN Confirm? [3]: YES
IC50 [3]: 32.8 µM
384-well COUNTERSCREEN Efficacy (%) [4]: -50%
IC50 [4]: 26.4 µM
